Experimental data as given in publication PMC4764904 (Scientific Reports, 2016).
Like-named read-outs stand apart in the source and are kept apart here. Where a SMILES comes first, the peptide text is derived from it. Where no end group is shown, it is not given here. [ ]: non-standard residue; d: D form. Cit = NC(=O)NCCC[C@H](N)C(=O)O; pGlu = O=C1CC[C@@H](C(=O)O)N1

Columns and labels:
human GALR3 = molecular target: T1, human GALR3 (Homo sapiens, UniProt O60755); assay: SRE-luc reporter assay, GALR3; format: cell-based;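 further: luciferase activity read in cell lysates across rising peptide concentrations, EC50 being the agonist concentration giving half-maximal stimulation from a sigmoidal nonlinear fit, Gαqi routing Gi-coupled receptor signaling through Gq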
T1 construct: host or cells: HEK293 cells stably expressing Gαqi
T1 sequence (O60755 1-368): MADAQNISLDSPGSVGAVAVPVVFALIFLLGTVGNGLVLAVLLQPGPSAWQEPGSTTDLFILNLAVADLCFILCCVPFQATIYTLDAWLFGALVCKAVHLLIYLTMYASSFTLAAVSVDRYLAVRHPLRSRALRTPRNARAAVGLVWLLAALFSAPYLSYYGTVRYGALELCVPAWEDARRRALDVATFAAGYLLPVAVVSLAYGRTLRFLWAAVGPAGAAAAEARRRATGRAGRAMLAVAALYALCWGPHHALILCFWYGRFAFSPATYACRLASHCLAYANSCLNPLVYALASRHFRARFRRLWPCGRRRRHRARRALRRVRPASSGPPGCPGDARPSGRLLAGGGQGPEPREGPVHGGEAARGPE

human GALR2 = molecular target: T2, human GALR2 (Homo sapiens, UniProt O43603); assay: SRE-luc reporter assay, GALR2; format: cell-based;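 further: luciferase activity read in cell lysates after exposure to rising peptide concentrations, EC50 being the agonist level giving half-maximal stimulation from a sigmoidal nonlinear regression fit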
T2 construct: host or cells: HEK293 cells stably expressing Gαqi
T2 sequence (O43603 1-387): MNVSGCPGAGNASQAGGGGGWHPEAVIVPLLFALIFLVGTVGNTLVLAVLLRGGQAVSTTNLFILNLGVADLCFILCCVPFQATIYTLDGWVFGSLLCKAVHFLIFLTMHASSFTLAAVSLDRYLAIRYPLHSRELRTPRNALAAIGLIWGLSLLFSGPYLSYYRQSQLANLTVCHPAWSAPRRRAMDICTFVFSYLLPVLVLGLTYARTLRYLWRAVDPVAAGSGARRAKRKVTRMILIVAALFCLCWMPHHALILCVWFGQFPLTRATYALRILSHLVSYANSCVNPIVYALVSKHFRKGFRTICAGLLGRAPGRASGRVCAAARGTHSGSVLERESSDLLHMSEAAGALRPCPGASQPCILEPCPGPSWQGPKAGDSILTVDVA

[1] = HEK293-Gqi cells transfected with SRE-luc and human GALR3, 6 h ligand treatment, mean ± S.E. of at least three independent experiments, NM = not measurable, read-out: GALR3 EC50
[2] = HEK293-Gqi cells transfected with SRE-luc and human GALR2, 6 h ligand treatment, mean ± S.E. of at least three independent experiments, NM = not measurable, read-out: GALR2 EC50

Compound	EC50 (human GALR3; [1]) [µM]	EC50 (human GALR2; [2]) [µM]	EC50 (human GALR3) [µM]	EC50 (human GALR2) [µM]
CSCC[C@H](NC(=O)[C@H](C)NC(=O)[C@H](CCC(N)=O)NC(=O)[C@@H]1CCCN1C(=O)[C@@H](NC(=O)[C@H](Cc1c[nH]c2ccccc12)NC(=O)[C@@H](N)CCCNC(N)=O)[C@@H](C)O)C(=O)N[C@@H](CC(C)C)C(=O)N[C@@H](Cc1ccc(O)cc1)C(=O)N[C@@H](CC(C)C)C(=O)N[C@@H](CCCCN)C(=O)NCC(=O)N[C@@H](C)C(=O)N[C@@H](CCC(N)=O)C(N)=O [Cit1] (H-[Cit]WTPQAMLYLKGAQ-NH2)	0.251 ± 0.065	0.0617 ± 0.019	–	–
CSCC[C@H](NC(=O)[C@@H](C)NC(=O)[C@H](CCC(N)=O)NC(=O)[C@@H]1CCCN1C(=O)[C@@H](NC(=O)[C@H](Cc1c[nH]c2ccccc12)NC(=O)[C@@H](N)CC(N)=O)[C@@H](C)O)C(=O)N[C@@H](CC(C)C)C(=O)N[C@@H](Cc1ccc(O)cc1)C(=O)N[C@@H](CC(C)C)C(=O)N[C@@H](CCCCN)C(=O)NCC(=O)N[C@@H](C)C(=O)N[C@@H](CCC(N)=O)C(N)=O [dA6]	0.316 ± 0.0471	0.209 ± 0.027	–	–
CSCC[C@H](NC(=O)[C@H](C)NC(=O)[C@H](CCC(N)=O)NC(=O)[C@@H]1CCCN1C(=O)[C@@H](NC(=O)[C@H](Cc1c[nH]c2ccccc12)NC(=O)[C@@H](N)CC(N)=O)[C@@H](C)O)C(=O)N[C@@H](CC(C)C)C(=O)N[C@@H](Cc1ccc(O)cc1)C(=O)N[C@@H](CC(C)C)C(=O)N[C@@H](CCCCN)C(=O)N[C@H](C)C(=O)N[C@@H](C)C(=O)N[C@@H](CCC(N)=O)C(N)=O [dA12] (H-NWTPQAMLYLK[dA]AQ-NH2)	1.41 ± 0.21	1.23 ± 0.159	–	–
CSCC[C@H](NC(=O)[C@H](C)NC(=O)[C@H](CCC(N)=O)NC(=O)[C@@H]1CCCN1C(=O)[C@@H](NC(=O)[C@H](Cc1c[nH]c2ccccc12)NC(=O)[C@@H](N)CC(N)=O)[C@@H](C)O)C(=O)N[C@@H](CC(C)C)C(=O)N[C@@H](Cc1ccc(O)cc1)C(=O)N[C@H](CC(C)C)C(=O)N[C@@H](CCCCN)C(=O)NCC(=O)N[C@@H](C)C(=O)N[C@@H](CCC(N)=O)C(N)=O [dL10]	> 10	> 10	–	–
CSCC[C@H](NC(=O)[C@H](C)NC(=O)[C@H](CCC(N)=O)NC(=O)[C@@H]1CCCN1C(=O)[C@H](NC(=O)[C@H](Cc1c[nH]c2ccccc12)NC(=O)[C@@H](N)CC(N)=O)[C@H](C)O)C(=O)N[C@@H](CC(C)C)C(=O)N[C@@H](Cc1ccc(O)cc1)C(=O)N[C@@H](CC(C)C)C(=O)N[C@@H](CCCCN)C(=O)NCC(=O)N[C@@H](C)C(=O)N[C@@H](CCC(N)=O)C(N)=O [dT3]	> 10	> 10	–	–
CSCC[C@H](NC(=O)[C@H](C)NC(=O)[C@H](CCC(N)=O)NC(=O)[C@@H]1CCCN1C(=O)[C@@H](NC(=O)[C@H](Cc1c[nH]c2ccccc12)NC(=O)[C@@H](N)CC(N)=O)[C@@H](C)O)C(=O)N[C@@H](CC(C)C)C(=O)N[C@H](Cc1ccc(O)cc1)C(=O)N[C@@H](CC(C)C)C(=O)N[C@@H](CCCCN)C(=O)NCC(=O)N[C@@H](C)C(=O)N[C@@H](CCC(N)=O)C(N)=O [dY9]	> 10	> 10	–	–
CSCC[C@H](NC(=O)[C@H](C)NC(=O)[C@H](CCC(N)=O)NC(=O)[C@@H]1CCCN1C(=O)[C@@H](NC(=O)[C@H](Cc1c[nH]c2ccccc12)NC(=O)[C@@H]1CCC(=O)N1)[C@@H](C)O)C(=O)N[C@@H](CC(C)C)C(=O)N[C@@H](Cc1ccc(O)cc1)C(=O)N[C@@H](CC(C)C)C(=O)N[C@@H](CCCCN)C(=O)NCC(=O)N[C@@H](C)C(=O)N[C@@H](CCC(N)=O)C(N)=O [pQ1] ([pGlu]WTPQAMLYLKGAQ-NH2)	0.0617 ± 0.0104	0.035 ± 0.00782	–	–
NWTPNAALYLFGAH-NH2 [N5A7F11H14]	3.02 ± 0.978	0.0545 ± 0.0108	–	–
NWTPNAALYLFGAQ-NH2 [N5A7F11]	> 10	0.107 ± 0.0201	–	–
NWTPQAALYLFGAQ-NH2 [A7F11]	> 10	0.145 ± 0.027	–	–
NWTPQAALYLKGAQ-NH2 [A7]	0.468 ± 0.0696	0.0389 ± 0.00728	–	–
NWTPQAMLYLFGAQ-NH2 [F11]	–	–	0.708 ± 0.119	0.049 ± 0.0101
NWTPQAMLYLKGAH-NH2 [Ha14]	0.0708 ± 0.0105	0.0537 ± 0.00692	–	–

Second part, led by results:

EC50 (human GALR3; [1]) [µM]	EC50 (human GALR2; [2]) [µM]	Compound	EC50 (human GALR3) [µM]	EC50 (human GALR2) [µM]
0.0933 ± 0.0209	0.0363 ± 0.00747	GWTPQAMLYLKGAQ-NH2 [G1]	–	–
0.105 ± 0.0176	0.0589 ± 0.00759	NWTLQAMLYLKGAQ-NH2 [L4]	–	–
0.501 ± 0.184	0.0617 ± 0.0127	NWTPNAMLYLKGAQ-NH2 [N5]	–	–
1.23 ± 0.108	1.02 ± 0.132	NWTPQAMGYLKGAQ-NH2 [G8]	–	–
0.38 ± 0.0491	0.0389 ± 0.0058	NWTPQAMLYLKGPQ-NH2 [P13]	–	–
0.331 ± 0.062	0.0363 ± 0.01	NWTPQAMLYLLGAQ-NH2 [L11]	–	–
